Experimental data published in patent US10370728B2, “Antibiotic susceptibility testing using probes for preribosomal RNA” (THE REGENTS OF THE UNIVERSITY OF CALIFORNIA, priority 2012, dated 2019).
Entries after “also recorded” stand apart in the source; their conditions may differ.

How the values were obtained:
[1] = test system: susceptible strain of E. coli; assay: Response of pre-rRNA to cefazolin in log phase culture; format: cell-based; settings: log phase of growth, within 30 min after addition
[2] = test system: E. coli clinical urine isolate EC103; assay: Electrochemical sensor assay of pre-rRNA and mature rRNA in E. coli EC103 cultures spiked with antibiotics; format: cell-based; settings: EC103 culture in MH broth, antibiotic added at 150 or 210 min; 25 μg/ml Rifampicin, 25 μg/ml Chloramphenicol, 4 μg/ml Ciprofloxacin, 16 μg/ml Gentamicin; vs culture without antibiotic
Description: Bacterial Strains and Media. E. coli clinical urine isolate EC103 (Amp^R) was obtained from the University of California-Los Angeles (UCLA) Clinical Microbiology Laboratory with approval from the UCLA and Veterans' Affair Institutional Review Boards and appropriate Health Insurance Portability and Accountability Act exemptions. EC103 was inoculated into Mueller Hinton (MH) broth with 12% glycerol (Becton Dickinson, Sparks, Md.) and stored at -80° C. EC103 was cultured overnight in MH broth with 64 μ[…] (Sigma, St. Louis, Mo.). EC103 was plated on Luria Broth (LB) agar (MOBIO Laboratories Inc., Carlsbad, Calif.) for counting colony-forming units (CFUs). EC103 Growth and Target Copy Number Experiments. Overnight cultures of EC103 were prepared by adding 5 μl of EC103 glycerol stock to 5 ml of MH broth with ampicillin and incubated at 37° C. overnight with shaking. The following day, the EC103 culture was diluted by adding 10 μl of the overnight culture to 100 ml of prewarmed and […] MH broth in a 500 ml flask, followed by incubation at 37° C. with shaking at 250 rpm. Every 30 min, including at 0 min and the overnight culture itself, a 1 ml sample was taken for OD600 measurement and 10-fold serial dilutions (100 μl into 900 μl) were performed in room temperature MH broth. Cell density was determined by plating serial dilutions in triplicate. At each time point, culture samples were transferred to an ice water bath or centrifuged immediately at 4° C. for 3 min at 14,000 rpm. The supernatants were then removed by aspiration, flash frozen in a dry ice-ethanol bath and stored at -80° C. […] Electrochemical detection. […] For thiolated capture probes, disposable 16-sensor bare Au electrode arrays were obtained from GeneFluidics ([…], Calif.). Each sensor of the array consisted of a 2.5 mm diameter central working electrode, surrounded by an Au counter electrode and an Au pseudo-reference electrode. The sensor chip was driven by a computer-controlled Helios multichannel electrochemical workstation (GeneFluidics, […], Calif.). Washing steps were carried out after each application of reagents by applying a stream of deionized H2O to the sensor surface for approximately 2-3 sec followed by 5 sec of drying under a stream of nitrogen. Prior to addition of the first reagent, the bare gold chips were dried as described above. To functionalize the working sensor surface, a fresh mixture of 0.05 μM thiolated capture probe and 300 μM 1,6-hexanedithiol (96%, Sigma, St. Louis, Mo.) was prepared in 10 mM Tris-HCl, 1 mM EDTA and 0.3 M NaCl (pH 8.0) and allowed to stand at room temperature for 10 min. […] This was then combined with the CFU/ml values determined by plating for each time point to generate target molecule number per CFU measurements.

| Compound | drop in the amount of pre-rRNA compared to a culture without the antibiotic [1] | effect on mature rRNA level [2] | effect on pre-rRNA level [2] |
| --- | --- | --- | --- |
| Cc1nnc(SCC2=C(C(=O)O)N3C(=O)[C@@H](NC(=O)Cn4cnnn4)[C@H]3SC2)s1 [cefazolin] | one-log drop |  |  |
| Gentamicin |  | decrease in the pool of mature rRNA; also recorded: selective decrease in mature rRNA | without affecting the level of pre-rRNA |
| O=C(N[C@H](CO)[C@H](O)c1ccc([N+](=O)[O-])cc1)C(Cl)Cl [chloramphenicol, Chloramphenicol] |  | decrease of mature rRNA; also recorded: selective decrease in mature rRNA | selective increase in pre-rRNA |
